Source: patent publication US5208148A, “Lipophilic fluorescent glycosidase substrates” (Molecular Probes, Inc., priority 1990, dated 1993)
Entries after “also recorded” stand apart in the source; their conditions may differ. Where a name gives a salt, the structure may show the parent alone. Read-outs that look alike come from different tables or passages of the source.

Assays:
β-galactosidase = biological target: T1, β-galactosidase (Escherichia coli, UniProt P00722); experiment: In vitro kinetic assay of galactosidase substrates (absorbance increase at 490 nm); assay type: biochemical; settings: in buffer, pH 7.0, room temperature; for Km: read-out: KM (Michaelis constant)
T1 construct: purchased Sigma Chemical Co., St. Louis, Mo
T1 sequence (P00722 2-1024): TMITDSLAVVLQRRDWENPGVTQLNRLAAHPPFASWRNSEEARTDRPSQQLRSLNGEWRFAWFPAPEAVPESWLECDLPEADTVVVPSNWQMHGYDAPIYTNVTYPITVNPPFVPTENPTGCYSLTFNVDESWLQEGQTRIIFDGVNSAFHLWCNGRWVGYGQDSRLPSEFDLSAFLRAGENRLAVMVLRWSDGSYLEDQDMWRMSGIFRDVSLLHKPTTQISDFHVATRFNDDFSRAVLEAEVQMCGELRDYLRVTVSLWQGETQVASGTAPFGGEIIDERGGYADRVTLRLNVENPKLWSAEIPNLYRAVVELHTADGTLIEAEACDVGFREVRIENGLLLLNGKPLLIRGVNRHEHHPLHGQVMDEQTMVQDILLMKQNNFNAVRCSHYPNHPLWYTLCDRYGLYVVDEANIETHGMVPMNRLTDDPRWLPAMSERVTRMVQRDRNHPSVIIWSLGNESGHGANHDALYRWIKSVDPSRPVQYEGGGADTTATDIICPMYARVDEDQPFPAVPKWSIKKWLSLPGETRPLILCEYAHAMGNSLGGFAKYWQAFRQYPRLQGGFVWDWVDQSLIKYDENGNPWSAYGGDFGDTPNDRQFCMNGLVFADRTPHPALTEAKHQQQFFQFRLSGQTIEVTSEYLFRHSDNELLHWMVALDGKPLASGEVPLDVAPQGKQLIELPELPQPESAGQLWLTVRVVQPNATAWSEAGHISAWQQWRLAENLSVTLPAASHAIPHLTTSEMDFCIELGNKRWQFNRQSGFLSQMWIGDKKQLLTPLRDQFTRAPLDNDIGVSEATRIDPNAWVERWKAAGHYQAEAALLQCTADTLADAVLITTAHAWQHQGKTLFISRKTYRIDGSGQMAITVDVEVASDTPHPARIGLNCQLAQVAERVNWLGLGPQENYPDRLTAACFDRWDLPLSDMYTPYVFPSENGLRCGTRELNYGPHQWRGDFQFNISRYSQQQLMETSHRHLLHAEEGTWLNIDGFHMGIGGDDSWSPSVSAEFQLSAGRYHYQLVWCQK
From the text: There are two parameters to describe the catalytic reaction of an enzyme on its substrate. The turnover rate k2, i.e. the substrate conversion rate by one unit of enzyme, can be expressed as μmol/(minute·mg). The Michaelis constant KM which gives the substrate binding ability to an enzyme (the smaller is KM, the higher is binding ability), can be expressed as μM. The relevant data for turnover of five lipophilic FDG substrates by β-galactosidase is detailed in Table 2.
The substrates have essentially no absorbance at 490 nm while their hydrolysis products from reaction with β-galactosidase have a strong absorbance at this wavelength. Using the extinction coefficients of the products, the substrate hydrolysis rate can be determined by the absorbance increase at 490 nm (Table 2).
13.8 g NaH2 PO4.H2 O, 0.2 g MgCl2.6H2 O and 7 mL liquid 2-mercaptoethanol are dissolved in 1 liter distilled water and adjusted to pH 7.0 using NaOH.
The glycosidase substrates are dissolved at 5 mg/mL in anhydrous DMSO.
β-Galactosidase (Sigma Chemical Co., St. Louis, Mo.) is dissolved at 1 mg/mL in water. This solution is stable for 24 hours at room temperature.
A series of substrate concentrations between 1 μM and 1 mM in 2.8 mL of the assay buffer is prepared and pipetted into a cuvette. 0.2 mL of a 1 mg/mL solution of β-galactosidase in water is added in the cuvette at room temperature to initiate the enzymatic reaction and the absorbance increase at 490 nm is immediately recorded in the spectrophotometer equipped with a chart recorder set at a speed of 10 mm/min. The enzyme reaction rate is calculated using an appropriate product extinction coefficient. Double reciprocal plotting of reaction rate and substrate concentration will yield the turnover rate and Michaelis constant (Stryer, BIOCHEMISTRY p. 189 (W. H. Freeman & Co., N.Y. 1988)).

cells = experiment: Cytotoxicity of the labeling reagent for cultured cells; assay type: cell-based; settings: for toxicity effects on labelled cells: concentration up to 100 mM
plant cell populations = settings: cited from earlier work
lacZ+ cell = experiment: Examination of galactosidase activity of sorted cells with resorufin galactoside; assay type: cell-based; settings: 0.5 mM, 0.1 M phosphate buffer, 0.1% Triton X-100
Procedure: The sorted cell is collected in a 96 well microtiter plate (Corning, N.Y.). The cell galactosidase activity is examined by means of the permeant fluorogenic substrate resorufin galactoside (Molecular Probes, Inc., Eugene, OR). To 20 μl cell sample in a microtiter well, is added 200 μl of a 0.5 mM resorufin galactoside solution in 0.1 M phosphate buffer containing 1 mM MgCl2 and 0.1% Triton X-100. After 1 hour incubation, the plate is read in a CYTOFLUOR™ fluorescence plate reader (Millipore, Bedford, Mass.) with excitation at 560 nm, emission at 645 nm, sensitivity=1. A fluorescence reading below 20 can be scored lacZ- cell and a reading higher than 60 can be scored lacZ+. The resorufin galactoside can detect the enzyme activity in a single lacZ^+ cell within 1 hour.

[1] = system: GUS gene positive tobacco plant cells; experiment: Detection of GUS gene expression in transformed plant cells; assay type: cell-based; settings: 100 μM, 4 h incubation, GUS+ versus control cells
Procedure: In our cellular assay, the tobacco plant with and without the GUS gene (CaMV35S-GUS, cauliflower mosaic virus 35S promoter with the coding region of GUS) were used. (Ref: Jefferson, R.A., EMBO J., 1987, 6, 3901-3907).
Sections of the stem of both plants were cultured on Murashige and Skoog basal medium with sucrose and agar inside of plant culture dish at 2000 lux, 18 h day, 26° C. The calli were collected from the dishes, cut to small pieces and transferred to liquid medium (in screw cap 50 ml Erlenmeyer flasks) to get cell suspension with shaking (120 rpm) at the culture room. Sterilized 1 mM FA910 solution (in water) was added to the cell suspension to final concentration of 100μM. After incubating cells in normal condition for 4 h, take 1 ml of suspension, spin down the cells. The cells were resuspended in 100 μl of fresh culture medium, placed onto glass slide, covered with a cover glass and sealed with wax.
Both the GUS+ and control tobacco cells were examined under a Zeiss microscope equipped with FITC filter set. Photographs were taken of both fluorescent and Nomaski images (Fujichrome P1600D, color reversal film, daylight).

NIH3T3 (lacZ-) cells = experiment: Labeling of lacZ- control cells with fluorogenic substrate, fluorescence microscopy; assay type: cell-based, mouse; settings: 60 μM, after 1 hr. incubation
Procedure: (§1) CRE BAG 2 (lacZ+) cells were used to test the effectiveness of the substrate in labeling lacZ+ cells. NIH3T3 (lacZ-) cells were used as a control. Both cell lines were obtained from American Type Culture Collection Co., Rockville, Md. The cells were grown in a humidified atmosphere of 5% CO2 in Dulbecco's modified Eagle's medium (DMEM) supplemented with 10% calf serum, 50 μg/ml gentamycin, 300 μg/ml L-glutamine and 10 mM HEPES pH 7.4 (culture medium).
(§2) to 1.0 mg of 5-fattyacylaminofluorescein di-β-galactopyranoside substrate (C12 FDG) was added 0.1193 ml of 20% DMSO to get 10 mM stock solution. Stock solutions were kept sealed in the brown bottle and stored at 4° C.
(§3) […] Labeling culture medium was filter-sterilized by passing through an ACRODISC™ filter (0.20 μm pore size).
Cells were washed with fresh (non-labeling) culture medium before examination. Cells were observed using a microscope equipped with a fluorescein filter. […] After 6 hrs., the fluorescence intensity in CRE BAG 2 cells reached its highest level.

CRE BAG 2 (lacZ+) cells = experiment: Labeling of lacZ+ cells with fluorogenic substrate, fluorescence microscopy; assay type: cell-based, mouse; settings: 60 μM
From the text: The photographs were taken under a Zeiss Axioplan Microscope equipped with FITC filter set using Fujichrome p1600 color reversal (slide) film. This film was then commercially developed. The black and white photographs were printed from color slides under the following conditions: 1)Internegative using Ilford Panf film, exposed for 1/60 sec. at f11;2) black and white prints on Kodak polycontrast III paper.
as §1, §2, §3
Cells were washed with fresh (non-labeling) culture medium before examination. […] After 6 hrs., the fluorescence intensity in CRE BAG 2 cells reached its highest level.

Compound	k2 (turnover rate) (β-galactosidase) [µmol/min/mg]	Km (β-galactosidase) [µM]	toxicity effects on labelled cells (cells)	toxicity to the cells (plant cell populations)	also measured
O=C1OC2(c3ccc(O[C@@H]4O[C@H](CO)[C@H](O)[C@H](O)[C@H]4O)cc3Oc3cc(O[C@@H]4O[C@H](CO)[C@H](O)[C@H](O)[C@H]4O)ccc32)c2ccccc21 [C0 FDG, fluorescein di-62-galactopyranoside, reference compound]	1.90	18			
CCCCCCCCCCCCCCCC(=O)Nc1ccc2c(c1)C(=O)OC21c2ccc(O[C@@H]3O[C@H](CO)[C@H](O)[C@H](O)[C@H]3O)cc2Oc2cc(O[C@@H]3O[C@H](CO)[C@H](O)[C@H](O)[C@H]3O)ccc21 [C16 FDG]	0.273	1.06	no detectible toxicity effects		
CCCCCCCCCCCCCCCCCC(=O)Nc1ccc2c(c1)C(=O)OC21c2ccc(O)cc2Oc2cc(O)ccc21 [Example F18, octadecanoyl aminofluorescein]				non-toxic	
CCCCCCCCCCCCCCCCCC(=O)Nc1ccc2c(c1)C(=O)OC21c2ccc(O[C@@H]3O[C@H](CO)[C@H](O)[C@H](O)[C@H]3O)cc2Oc2cc(O[C@@H]3O[C@H](CO)[C@H](O)[C@H](O)[C@H]3O)ccc21 [C18 FDG]	8.28	20.8	no detectible toxicity effects		
rhodamine isothiocyanate [RITC]				non-toxic	toxicity to the cells at high levels (plant cell populations): toxic at high levels
O=c1ccc2nc3ccc(O[C@@H]4O[C@H](CO)[C@H](O)[C@H](O)[C@H]4O)cc3oc-2c1 [resorufin galactoside]					time to detect enzyme activity in a single lacZ+ cell (lacZ+ cell): ≤ 1 h
CCCCCCCCCCCC(=O)Nc1ccc2c(c1)C(=O)OC21c2ccc(O[C@@H]3O[C@H](C(=O)O)[C@@H](O)[C@H](O)[C@H]3O)cc2Oc2cc(O[C@@H]3O[C@H](C(=O)O)[C@@H](O)[C@H](O)[C@H]3O)ccc21 [FA910, 5-DODECANOYLAMINOFLUORESCEIN DI-β-D-GLUCOPYRANOSIDURONIC ACID, DI-LITHIUM SALT]					staining of tobacco cells (yellowish-green fluorescence) [1]: Only the GUS gene positive tobacco plant cells were stained
fluorescein isothiocyanate [FITC]				non-toxic	toxicity to the cells at high levels (plant cell populations; high levels): toxic at high levels
CCCCCCCCCCCCCCCCCCOC(=O)c1ccccc1-c1c2ccc(=[N+](CC)CC)cc-2oc2cc(N(CC)CC)ccc12 [Example R18, octadecyl rhodamine B]				non-toxic	
CCCCCCCCCCCC(=O)Nc1ccc2c(c1)C(=O)OC21c2ccc(O[C@@H]3O[C@H](CO)[C@H](O)[C@H](O)[C@H]3O)cc2Oc2cc(O[C@@H]3O[C@H](CO)[C@H](O)[C@H](O)[C@H]3O)ccc21 [C12 FDG, 5-DODECANOYLAMINOFLUORESCEIN DI-β-D-GALACTOPYRANOSIDE]	0.0537	0.316	no detectible toxicity effects		fluorescence in 3T3 cells (NIH3T3 (lacZ-) cells): not in 3T3 cells; time at which fluorescence intensity in CRE BAG 2 cells reached its highest level (CRE BAG 2 (lacZ+) cells): 6 h; fluorescence inside CRE BAG 2 cells (CRE BAG 2 (lacZ+) cells; after 1 hr. incubation): fluorescence was observed inside CRE BAG 2 cells; population doubling time compared with control (cells; 60 μM labeling medium): same population doubling time as the control; population doubling time compared with control (cells; 0.2 mM in the culture medium): same population doubling time as the control; morphology and viability of cells (cells; grown in 0.2 mM for 10 days): normal morphology and remained viable; also recorded: normal in morphology and appearance; second generation of subcultured cells (cells; preincubated in 60 μM for 24 hrs.): cells of second generation were normal; second generation of subcultured cells (cells; preincubated in the labeled culture medium for 24 hrs.): cells of the second generation were normal
